Laboratory results from ChEMBL document CHEMBL3991601, “The target landscape of clinical kinase drugs” (Science, 2017).
Active and inactive are the calls of the source.

Legend:
[1] = molecular target: Mitogen-activated protein kinase 3 (Homo sapiens, UniProt P27361)
[2] = molecular target: Interleukin-1 receptor-associated kinase 1 (Homo sapiens, UniProt P51617)
[3] = molecular target: T1, Activin receptor type-1 (Homo sapiens, UniProt Q04771)
T1 sequence (Q04771 whole entry): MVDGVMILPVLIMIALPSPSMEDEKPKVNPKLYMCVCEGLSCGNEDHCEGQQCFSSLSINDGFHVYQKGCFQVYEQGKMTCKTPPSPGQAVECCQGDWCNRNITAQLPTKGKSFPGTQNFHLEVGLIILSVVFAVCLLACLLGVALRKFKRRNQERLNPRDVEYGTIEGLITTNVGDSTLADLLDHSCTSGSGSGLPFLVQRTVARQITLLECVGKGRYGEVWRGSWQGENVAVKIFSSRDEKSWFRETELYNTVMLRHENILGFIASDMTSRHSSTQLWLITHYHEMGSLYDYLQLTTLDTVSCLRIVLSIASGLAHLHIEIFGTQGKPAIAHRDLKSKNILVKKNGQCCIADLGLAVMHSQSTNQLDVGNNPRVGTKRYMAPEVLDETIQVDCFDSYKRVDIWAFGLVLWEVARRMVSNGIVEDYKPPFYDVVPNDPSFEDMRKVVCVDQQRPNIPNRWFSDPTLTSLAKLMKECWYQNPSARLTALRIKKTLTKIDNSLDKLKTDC

[4] = molecular target: T2, Mitogen-activated protein kinase kinase kinase 2 (Homo sapiens, UniProt Q9Y2U5)
T2 sequence (Q9Y2U5 whole entry): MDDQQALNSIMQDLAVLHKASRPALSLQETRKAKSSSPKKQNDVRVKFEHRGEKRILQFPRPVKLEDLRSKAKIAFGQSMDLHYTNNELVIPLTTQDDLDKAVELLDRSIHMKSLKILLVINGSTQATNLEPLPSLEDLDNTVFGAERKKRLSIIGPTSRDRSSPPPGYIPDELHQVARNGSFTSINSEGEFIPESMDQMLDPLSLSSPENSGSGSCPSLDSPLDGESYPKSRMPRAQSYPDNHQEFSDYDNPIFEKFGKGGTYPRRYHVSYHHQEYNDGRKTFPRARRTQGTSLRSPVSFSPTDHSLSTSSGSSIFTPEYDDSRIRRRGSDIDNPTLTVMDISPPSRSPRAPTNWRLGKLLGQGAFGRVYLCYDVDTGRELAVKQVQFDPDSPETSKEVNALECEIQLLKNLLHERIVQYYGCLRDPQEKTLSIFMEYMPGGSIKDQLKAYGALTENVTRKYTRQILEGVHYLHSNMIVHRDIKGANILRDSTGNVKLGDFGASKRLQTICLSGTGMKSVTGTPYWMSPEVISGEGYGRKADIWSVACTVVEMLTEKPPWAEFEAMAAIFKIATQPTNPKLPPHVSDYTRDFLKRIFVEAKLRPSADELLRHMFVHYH

[5] = molecular target: cAMP-dependent protein kinase type II-alpha regulatory subunit (Homo sapiens, UniProt P13861)
[6] = molecular target: Protein-tyrosine kinase 2-beta (Homo sapiens, UniProt Q14289)
[7] = molecular target: T3, Serine/threonine-protein kinase STK11 (Homo sapiens, UniProt Q15831)
T3 sequence (Q15831 whole entry): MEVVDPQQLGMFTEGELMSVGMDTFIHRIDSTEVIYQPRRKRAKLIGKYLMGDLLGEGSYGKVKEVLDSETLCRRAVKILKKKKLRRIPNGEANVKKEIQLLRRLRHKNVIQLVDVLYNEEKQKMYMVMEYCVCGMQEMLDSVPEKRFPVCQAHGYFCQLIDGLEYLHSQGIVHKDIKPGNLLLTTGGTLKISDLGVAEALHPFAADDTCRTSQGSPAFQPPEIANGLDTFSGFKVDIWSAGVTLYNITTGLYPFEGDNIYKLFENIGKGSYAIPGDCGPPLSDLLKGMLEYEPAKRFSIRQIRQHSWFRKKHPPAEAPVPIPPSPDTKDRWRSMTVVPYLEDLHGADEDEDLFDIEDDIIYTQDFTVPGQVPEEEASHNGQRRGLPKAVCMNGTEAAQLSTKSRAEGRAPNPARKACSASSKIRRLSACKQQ

[8] = molecular target: Serine/threonine-protein kinase/endoribonuclease IRE2 (Homo sapiens, UniProt Q76MJ5)
[9] = molecular target: T4, Thyroid hormone receptor-associated protein 3 (Homo sapiens, UniProt Q9Y2W1)
T4 sequence (Q9Y2W1 whole entry): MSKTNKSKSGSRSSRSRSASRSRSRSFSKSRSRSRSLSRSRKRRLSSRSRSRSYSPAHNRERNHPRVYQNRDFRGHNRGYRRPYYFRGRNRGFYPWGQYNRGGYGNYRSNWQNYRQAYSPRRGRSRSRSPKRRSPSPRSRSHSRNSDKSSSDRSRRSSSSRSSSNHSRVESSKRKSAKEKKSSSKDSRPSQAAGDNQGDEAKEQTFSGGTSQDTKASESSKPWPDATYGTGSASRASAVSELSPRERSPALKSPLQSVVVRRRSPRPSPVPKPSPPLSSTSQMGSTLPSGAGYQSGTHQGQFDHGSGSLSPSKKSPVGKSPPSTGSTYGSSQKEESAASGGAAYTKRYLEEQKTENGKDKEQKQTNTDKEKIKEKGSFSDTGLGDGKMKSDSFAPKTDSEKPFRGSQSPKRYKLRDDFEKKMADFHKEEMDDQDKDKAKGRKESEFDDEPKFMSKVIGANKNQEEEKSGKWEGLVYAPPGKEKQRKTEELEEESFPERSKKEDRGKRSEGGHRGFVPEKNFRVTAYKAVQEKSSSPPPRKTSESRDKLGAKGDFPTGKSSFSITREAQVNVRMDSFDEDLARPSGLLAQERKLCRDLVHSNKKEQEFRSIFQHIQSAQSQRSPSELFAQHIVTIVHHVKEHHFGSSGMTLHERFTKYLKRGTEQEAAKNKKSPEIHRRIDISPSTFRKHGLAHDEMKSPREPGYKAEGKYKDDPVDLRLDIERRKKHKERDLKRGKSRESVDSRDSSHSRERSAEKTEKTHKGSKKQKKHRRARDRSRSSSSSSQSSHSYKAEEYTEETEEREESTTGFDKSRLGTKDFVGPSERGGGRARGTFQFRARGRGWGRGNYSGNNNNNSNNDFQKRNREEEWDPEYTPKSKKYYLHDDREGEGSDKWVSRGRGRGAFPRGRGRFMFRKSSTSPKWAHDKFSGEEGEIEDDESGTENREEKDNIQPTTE
Note: in the data inactive means no Kd found up to 30 µM.

Chain of Interleukin-1 receptor-associated kinase 1 (P51617 whole entry): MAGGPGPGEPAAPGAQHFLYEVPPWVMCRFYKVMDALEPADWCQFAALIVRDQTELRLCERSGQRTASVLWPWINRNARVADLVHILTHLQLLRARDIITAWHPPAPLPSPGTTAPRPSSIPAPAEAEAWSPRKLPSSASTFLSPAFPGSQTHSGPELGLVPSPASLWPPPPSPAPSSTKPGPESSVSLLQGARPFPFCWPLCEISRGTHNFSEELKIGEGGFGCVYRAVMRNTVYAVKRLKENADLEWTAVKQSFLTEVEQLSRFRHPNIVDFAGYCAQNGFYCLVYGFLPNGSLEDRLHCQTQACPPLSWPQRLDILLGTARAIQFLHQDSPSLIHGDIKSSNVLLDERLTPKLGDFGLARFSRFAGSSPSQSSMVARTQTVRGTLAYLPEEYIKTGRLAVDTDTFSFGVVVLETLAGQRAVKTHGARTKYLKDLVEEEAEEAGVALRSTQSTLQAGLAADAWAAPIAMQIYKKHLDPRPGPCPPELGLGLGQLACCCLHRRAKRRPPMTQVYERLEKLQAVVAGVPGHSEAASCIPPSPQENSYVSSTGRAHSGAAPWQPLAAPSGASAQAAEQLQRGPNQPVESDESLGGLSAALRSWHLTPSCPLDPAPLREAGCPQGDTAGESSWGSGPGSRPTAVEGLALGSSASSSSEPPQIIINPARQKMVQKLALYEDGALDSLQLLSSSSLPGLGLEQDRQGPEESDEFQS
Chain of Serine/threonine-protein kinase/endoribonuclease IRE2 (Q76MJ5 whole entry): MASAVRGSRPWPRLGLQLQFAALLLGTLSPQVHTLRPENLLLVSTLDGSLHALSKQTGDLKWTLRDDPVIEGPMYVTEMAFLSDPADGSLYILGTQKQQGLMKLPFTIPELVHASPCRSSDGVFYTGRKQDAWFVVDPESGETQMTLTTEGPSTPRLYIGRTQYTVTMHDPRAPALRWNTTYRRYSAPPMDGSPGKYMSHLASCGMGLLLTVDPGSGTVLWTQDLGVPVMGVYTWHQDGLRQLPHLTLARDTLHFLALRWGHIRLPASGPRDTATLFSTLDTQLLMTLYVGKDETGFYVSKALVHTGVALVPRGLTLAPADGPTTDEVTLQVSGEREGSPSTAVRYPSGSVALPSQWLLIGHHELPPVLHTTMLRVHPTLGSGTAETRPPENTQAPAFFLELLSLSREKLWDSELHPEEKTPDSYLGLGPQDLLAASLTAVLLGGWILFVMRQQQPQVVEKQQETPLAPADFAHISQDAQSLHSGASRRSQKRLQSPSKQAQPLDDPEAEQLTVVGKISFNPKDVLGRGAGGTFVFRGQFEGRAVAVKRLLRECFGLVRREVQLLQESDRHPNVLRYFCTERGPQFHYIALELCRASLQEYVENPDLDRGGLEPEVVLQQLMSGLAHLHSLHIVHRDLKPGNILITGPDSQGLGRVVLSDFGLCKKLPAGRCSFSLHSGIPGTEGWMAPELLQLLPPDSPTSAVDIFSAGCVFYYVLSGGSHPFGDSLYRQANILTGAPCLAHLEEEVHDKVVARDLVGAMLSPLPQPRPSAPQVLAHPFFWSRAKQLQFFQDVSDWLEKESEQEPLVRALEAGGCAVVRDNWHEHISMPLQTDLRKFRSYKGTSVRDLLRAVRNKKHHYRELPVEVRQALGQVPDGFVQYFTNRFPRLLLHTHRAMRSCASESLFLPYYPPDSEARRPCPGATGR
Chain of Protein-tyrosine kinase 2-beta (Q14289 whole entry): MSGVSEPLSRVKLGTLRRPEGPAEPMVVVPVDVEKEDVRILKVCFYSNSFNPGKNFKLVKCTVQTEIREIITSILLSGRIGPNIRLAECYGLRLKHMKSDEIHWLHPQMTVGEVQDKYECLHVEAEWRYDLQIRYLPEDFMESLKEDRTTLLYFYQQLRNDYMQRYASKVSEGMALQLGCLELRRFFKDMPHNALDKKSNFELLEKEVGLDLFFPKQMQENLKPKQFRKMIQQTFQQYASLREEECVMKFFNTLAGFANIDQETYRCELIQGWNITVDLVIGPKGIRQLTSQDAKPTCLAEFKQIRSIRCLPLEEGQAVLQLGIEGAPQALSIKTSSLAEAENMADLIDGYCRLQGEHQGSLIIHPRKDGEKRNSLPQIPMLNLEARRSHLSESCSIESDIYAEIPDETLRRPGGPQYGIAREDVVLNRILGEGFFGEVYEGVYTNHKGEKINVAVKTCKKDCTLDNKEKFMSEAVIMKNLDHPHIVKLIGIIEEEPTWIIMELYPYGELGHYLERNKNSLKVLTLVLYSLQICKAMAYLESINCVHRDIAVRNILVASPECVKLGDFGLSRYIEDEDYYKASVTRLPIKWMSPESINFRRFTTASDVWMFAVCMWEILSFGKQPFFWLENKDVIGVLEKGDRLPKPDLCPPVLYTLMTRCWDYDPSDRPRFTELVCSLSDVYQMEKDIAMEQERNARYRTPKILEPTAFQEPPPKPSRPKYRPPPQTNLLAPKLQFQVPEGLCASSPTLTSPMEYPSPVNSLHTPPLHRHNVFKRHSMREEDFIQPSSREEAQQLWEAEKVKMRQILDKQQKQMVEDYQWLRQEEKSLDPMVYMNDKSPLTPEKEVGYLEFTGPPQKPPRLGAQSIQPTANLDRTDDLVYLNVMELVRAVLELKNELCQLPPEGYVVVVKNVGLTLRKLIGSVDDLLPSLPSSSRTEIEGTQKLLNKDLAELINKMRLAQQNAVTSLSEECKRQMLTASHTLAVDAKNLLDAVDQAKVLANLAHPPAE
Chain of cAMP-dependent protein kinase type II-alpha regulatory subunit (P13861 whole entry): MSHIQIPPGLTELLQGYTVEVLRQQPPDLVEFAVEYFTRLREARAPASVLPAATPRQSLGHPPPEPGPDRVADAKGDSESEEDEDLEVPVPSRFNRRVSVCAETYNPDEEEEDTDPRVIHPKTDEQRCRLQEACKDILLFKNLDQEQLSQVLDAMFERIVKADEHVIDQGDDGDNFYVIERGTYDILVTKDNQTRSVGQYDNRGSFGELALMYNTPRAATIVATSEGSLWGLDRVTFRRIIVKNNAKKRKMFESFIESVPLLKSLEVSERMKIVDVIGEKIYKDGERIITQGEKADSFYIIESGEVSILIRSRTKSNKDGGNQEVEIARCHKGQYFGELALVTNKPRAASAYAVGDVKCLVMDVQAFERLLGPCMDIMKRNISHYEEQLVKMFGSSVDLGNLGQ
Chain of Mitogen-activated protein kinase 3 (P27361 whole entry): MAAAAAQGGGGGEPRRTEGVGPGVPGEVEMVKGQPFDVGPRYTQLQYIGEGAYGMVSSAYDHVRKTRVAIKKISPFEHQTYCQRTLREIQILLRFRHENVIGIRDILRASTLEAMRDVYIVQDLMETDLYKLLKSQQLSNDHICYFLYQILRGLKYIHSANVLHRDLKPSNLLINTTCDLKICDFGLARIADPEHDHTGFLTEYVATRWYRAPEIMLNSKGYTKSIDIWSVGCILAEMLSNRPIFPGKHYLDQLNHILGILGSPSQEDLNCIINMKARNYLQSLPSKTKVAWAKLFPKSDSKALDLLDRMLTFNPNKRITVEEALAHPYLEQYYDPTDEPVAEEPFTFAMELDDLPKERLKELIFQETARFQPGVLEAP

Row | SMILES | Kd [1] | Kd [2] | Kd [3] | Kd [4] | Kd [5] | Kd [6] | Kd [7] | Kd [8] | Kd [9]
1 | Cc1csc(-c2nnc(Nc3ccc(Oc4ncccc4-c4ccnc(N)n4)cc3)c3ccccc23)c1 [AMG-900] | > 30 µM (inactive) | > 30 µM (inactive) | > 30 µM (inactive) | 1.97 µM (active) | > 30 µM (inactive) | > 30 µM (inactive) |  | > 30 µM (inactive) | 2.75 µM
2 | CNC(=O)c1ccccc1Sc1ccc2c(/C=C/c3ccccn3)n[nH]c2c1 [AXITINIB] |  |  |  |  | > 30 µM (inactive) |  |  | > 30 µM (inactive) | > 30 µM (inactive)
3 | CC(C)(C)c1nc(-c2cccc(NS(=O)(=O)c3c(F)cccc3F)c2F)c(-c2ccnc(N)n2)s1 [DABRAFENIB] | > 30 µM (inactive) |  |  | > 30 µM (inactive) | > 30 µM (inactive) | > 30 µM (inactive) | > 30 µM (inactive) | 0.116 µM | > 30 µM (inactive)
4 | CNC(=O)c1cccc2cc(Oc3ccnc4cc(OCC5(N)CC5)c(OC)cc34)ccc12 [LUCITANIB] | > 30 µM (inactive) | > 30 µM (inactive) | > 30 µM (inactive) | > 30 µM (inactive) | > 30 µM (inactive) | > 30 µM (inactive) | > 30 µM (inactive) | > 30 µM (inactive) | 
5 | COc1ncc(-c2ccc3nccc(-c4ccnnc4)c3c2)cc1NS(=O)(=O)c1ccc(F)cc1F [OMIPALISIB] | > 30 µM (inactive) | > 30 µM (inactive) | > 30 µM (inactive) | > 30 µM (inactive) | > 30 µM (inactive) | > 30 µM (inactive) | > 30 µM (inactive) | > 30 µM (inactive) | 
6 | Cc1[nH]c(/C=C2\C(=O)Nc3ccccc32)c(C)c1CCC(=O)O [ORANTINIB] | > 30 µM (inactive) |  | > 30 µM (inactive) | > 30 µM (inactive) | > 30 µM (inactive) |  |  | > 30 µM (inactive) | > 30 µM (inactive)
7 | CCCCCCCCCCCCCCCCCCOP(=O)([O-])OC1CC[N+](C)(C)CC1 [PERIFOSINE] | > 30 µM (inactive) | > 30 µM (inactive) | > 30 µM (inactive) | > 30 µM (inactive) |  | > 30 µM (inactive) | > 30 µM (inactive) | > 30 µM (inactive) | > 30 µM (inactive)
8 | CNC(=O)c1cc(Oc2ccc(NC(=O)Nc3cc(C(C)(C)C)nn3-c3ccc4ncccc4c3)c(F)c2)ccn1 [REBASTINIB] | > 30 µM (inactive) |  | > 30 µM (inactive) | > 30 µM (inactive) | > 30 µM (inactive) | 9.24 µM (active) | > 30 µM (inactive) | > 30 µM (inactive) | > 30 µM (inactive)
9 | Cn1ncc(Cl)c1-c1cc(C(=O)N[C@H](CN)Cc2ccc(F)c(F)c2)oc1Cl [UPROSERTIB] | > 30 µM (inactive) | > 30 µM (inactive) | > 30 µM (inactive) | > 30 µM (inactive) | > 30 µM (inactive) | > 30 µM (inactive) | > 30 µM (inactive) | > 30 µM (inactive) | 

Other lines, results leading:

Row | Kd [1] | Kd [2] | Kd [3] | Kd [4] | Kd [5] | Kd [6] | Kd [7] | Kd [8] | Kd [9] | SMILES
10 | > 30 µM (inactive) | > 30 µM (inactive) | > 30 µM (inactive) | > 30 µM (inactive) | > 30 µM (inactive) | > 30 µM (inactive) | > 30 µM (inactive) | > 30 µM (inactive) | > 30 µM (inactive) | COCc1c(-c2ccc(NC(=O)Nc3cc(C(F)(F)F)ccc3F)c(F)c2)c2c(N)ncnn2c1CN1CCOCC1
11 | > 30 µM (inactive) |  | > 30 µM (inactive) | > 30 µM (inactive) | > 30 µM (inactive) | > 30 µM (inactive) | > 30 µM (inactive) | > 30 µM (inactive) | > 30 µM (inactive) | COc1cc(Nc2ncc3c(n2)-c2ccc(Cl)cc2C(c2c(F)cccc2OC)=NC3)ccc1C(=O)O [ALISERTIB]
12 |  |  |  |  | > 30 µM (inactive) |  |  | > 30 µM (inactive) | > 30 µM (inactive) | C[C@@H](Oc1cc(-n2cnc3ccc(CN4CCN(C)CC4)cc32)sc1C(N)=O)c1ccccc1C(F)(F)F [GSK-461364]
13 | > 30 µM (inactive) | 2.06 µM (active) | 0.477 µM (active) | > 30 µM (inactive) | > 30 µM (inactive) | > 30 µM (inactive) | > 30 µM (inactive) | > 30 µM (inactive) |  | CNC(=O)c1nn(C)c2c1C(C)(C)Cc1cnc(Nc3ccc(N4CCN(C)CC4)cc3)nc1-2 [MILCICLIB]
14 | > 30 µM (inactive) | > 30 µM (inactive) | > 30 µM (inactive) | > 30 µM (inactive) | > 30 µM (inactive) | > 30 µM (inactive) | > 30 µM (inactive) | > 30 µM (inactive) |  | CN(C[C@@H]1COCCO1)S(=O)(=O)Nc1ccc2ccc3ncc(-c4cnn(C)c4)cc3c(=O)c2c1 [MK-2461]
15 | > 30 µM (inactive) |  |  |  | > 30 µM (inactive) |  | > 30 µM (inactive) | > 30 µM (inactive) | > 30 µM (inactive) | NC(=O)c1c(OCc2c(F)cc(Br)cc2F)nsc1NC(=O)NCCCCN1CCCC1 [OSI-632]
16 | > 30 µM (inactive) |  |  | 0.164 µM (active) | > 30 µM (inactive) |  | > 30 µM (inactive) | > 30 µM (inactive) | > 30 µM (inactive) | CC(=O)NCC(=O)N1[C@@H]2CC[C@H]1c1ccc(Nc3ncc(C(F)(F)F)c(NC4CCC4)n3)cc12 [PF-03814735]
17 |  |  |  |  | > 30 µM (inactive) |  |  | > 30 µM (inactive) | > 30 µM (inactive) | N#CC[C@H](C1CCCC1)n1cc(-c2ncnc3[nH]ccc23)cn1 [RUXOLITINIB]
18 | > 30 µM (inactive) | > 30 µM (inactive) | 0.249 µM (active) | > 30 µM (inactive) | > 30 µM (inactive) | 0.19 µM (active) | > 30 µM (inactive) | > 30 µM (inactive) |  | CCS(=O)(=O)c1cccc(-c2cc(C(=O)NC3CCN(C)CC3)c(C)c3[nH]c4ncc(C)cc4c23)c1 [TAK-901]
